Results on two compounds are retold here after ChEMBL document CHEMBL1208705, “4-(3-Trifluoromethylphenyl)-pyrimidine-2-carbonitrile as cathepsin S inhibitors: N3, not N1 is critically important” (Bioorg Med Chem Lett, 2010).

The data set in a line: Chemical stability of the compound assessed as half life at 1.25 mM in presence of glutathione by NMR analysis. Format: physicochemical. The conditions noted are these: gsh.

As usually defined, the half-life is how long it takes for the measured level to halve. In the case of `CN1CCN(CCCOc2ccc(-c3cccc(C#N)n3)cc2C(F)(F)F)CC1`, the half-life at 1250 µM is 150 h.
The value for `CN1CCN(CCCOc2ccc(-c3ccnc(C#N)c3)cc2C(F)(F)F)CC1` was 120 h.
